Laboratory results published in patent US9987299B2, “Methods of improving RNAi in well-differentiated airway epithelia” (University of Iowa Research Foundation, priority 2014, dated 2018).

Legend:
RSV strain A2 = experiment: RSV titer in apical washings of infected HAE (plaque assay on HEp-2 cells); type: cell-based, Respiratory Syncytial Virus
Source text: FIG. 6. […] HAE was either treated or untreated with PAF in concurrence with RSV N DsiRNA. Six hours later the cells were infected with RSV at an MOI of 1. Forty eight hours later, the cell washings from the apical surface was collected and assayed for viral titer (a). The cells were lysed and the proteins visualized after immunoprecipitation with anti-RSV antibodies (b) and the bands quantified by densitometry (c). Data are mean±SD from the results three different experiments, each using a different donor. ***p<0.001 (Student's t-test).
For infections, RSV aliquots were resuspended in cold DMEM or DMEM/F12. RSV strain A2 (wt RSV) was kindly provided by Barney Graham (NIH, Bethesda, Md.), and working stocks of RSV were prepared in HEp-2 cells (ATCC).
RSV infection of HAE for both for immunoblot and viral titer was done at an MOI of 1. The virus was thawed at 37° C. and diluted in MEM (0% FCS) to a volume of 70 μl (1MOI)/well. The cells in Millicell filters were rinsed with the same media once and the virus applied to the apical surface. The plate was incubated at 37° C. for a period of 2 hours. […]
HEp-2 cells were seeded onto 12-well plate at a sufficient density so that it reached 90-95% confluence the next day. […] The cells were incubated for an additional 24 hours at 37° C. after which the plaques were counted under a light box. […]

CFTR protein = CFTR protein levels, immunoprecipitation and immunoblot with densitometry in HAE; type: cell-based, human
Description: (§1) FIG. 4. […] Alternatively, spiperone was applied apically and basolaterally to well-differentiated HAE for 6 hours, and then removed by rinsing before incubation for 4 hours with CFTR-targeting or NC1 DsiRNAs complexed with Transductin. In both cases, 24 hours after transfection, and RNA levels quantified by RT-qPCR. (b) A representative immunoblot from similarly treated wells, but cells were lysed and proteins visualized after immunoprecipitation with anti-CFTR antibody. Alpha-tubulin was used as a loading control. (c) Densitometry readings of immunoblots with results normalized to NC1 treated samples. In all cases, data are from 3 biological replicates and are mean±SD. ***p<0.001, **p<0.01 (Student's t-test).
HAE were rinsed with PBS and lysed in RIPA buffer (1% NP-40, 0.5% sodium deoxycholate, 0.1% SDS, 50 mM Tris, protease inhibitors [complete; mini, EDTA-free; Roche Biochemicals, Indianapolis, Ind.]) for 30 minutes at 4° C. The lysate were centrifuged in a table top centrifuge at 14,000 rpm for 20 minutes at 4° C. The supernatant was quantified by BCA protein assay kit (Pierce, Rockford, Ill.). Thirty micrograms of protein per lane was separated on a 10% Tris-HCL Criterion precast gel (Bio-Rad, Hercules, Calif.) for western blot analysis. The protein was transferred to Polyvinylidene difluoride membrane and then was probed with goat anti-RSV antibody purchased from Meridian Life Sciences (Memphis, Tenn.). The membrane was imaged, and then stripped with Restore Western Blot Stripping Buffer (Thermo Scientific, Lafayette, Colo.) for 15 minutes. The membrane was rinsed with Tris-buffered saline-Tween (TBS-T) and blocked in 5% bovine serum albumin (Research Products International Corp, Mt. Prospect, Ill.). The membrane was then reprobed with α-tubulin (Sigma-Aldrich).

Human CFTR mRNA = experiment: CFTR mRNA silencing by CFTR DsiRNA-Transductin in well-differentiated HAE (RT-qPCR); type: cell-based; settings: CFTR DsiRNA with simultaneous PAF treatment or spiperone pre-treatment
Description: as §1
For well-differentiated airway epithelia, transfection was performed mostly according to the manufacturer's protocol. […]
Total RNA was isolated using SV96 RNA isolation kit (Promega, Madison, Wis.), according to manufacturer's protocol. […] One-fifteenth of the cDNA was then amplified and analyzed by using the 5′-nuclease assay in a 7900 Real Time PCR System (Applied Biosystems, Foster city, CA) using primer-probe pairs reaction buffer and Immolase DNA polymerase (Bioline, Taunton, Mass.). […] Absolute quantification of an mRNA target sequence within an unknown sample was determined by reference to a standard curve. […]

platelet activating factor [PAF]
reduction of viral titers from apical rinses (RSV strain A2; PAF with RSV N DsiRNA-Transductin, RSV MOI 1 six hours later, 48 hours after infection): more than 100 fold
effect on viral titers (RSV strain A2; PAFR activation alone (no RSV N DsiRNA effect)): did not reduce viral titers
CFTR protein levels compared to controls (CFTR protein; PAF or spiperone and CFTR DsiRNA-Transductin, immunoprecipitation, western blot): reduced CFTR protein levels
fully glycosylated CFTR band C (CFTR protein; densitometry, normalized to NC1 treated samples): significantly decreased
silencing of CFTR mRNA levels (Human CFTR mRNA): approximately 30%
